According to paper PMC4211601, “Defining the conformation of human mincle that interacts with mycobacterial trehalose dimycolate” (Glycobiology, 2014):

Biological target: T1, human mincle CRD (Homo sapiens, UniProt Q9ULY5)
T1 construct: gene CLEC4E; C-terminal biotinylation tag kept; immobilised on streptavidin plates
T1 sequence (Q9ULY5 74-219): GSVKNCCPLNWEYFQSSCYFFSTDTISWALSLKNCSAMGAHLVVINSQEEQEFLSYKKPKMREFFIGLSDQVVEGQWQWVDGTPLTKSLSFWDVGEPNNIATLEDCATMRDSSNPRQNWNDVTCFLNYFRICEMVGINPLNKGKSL
Test: competition with […]-Man31-BSA on immobilised CRD
Type: binding

Row | SMILES | Ki
1 | CCCCCC(=O)OC[C@H]1O[C@H](O[C@H]2O[C@H](COC(=O)CCCCC)[C@@H](O)[C@H](O)[C@H]2O)[C@H](O)[C@@H](O)[C@@H]1O [dihexanoate derivative] | 12.5 µM
2 | CCCCCC(=O)OC[C@H]1O[C@H](O[C@H]2O[C@H](CO)[C@@H](O)[C@H](O)[C@H]2O)[C@H](O)[C@@H](O)[C@@H]1O [monohexanoate derivative] | 184 ± 6 µM
3 | CCCCCCCC(=O)OC[C@H]1O[C@H](O[C@H]2O[C@H](CO)[C@@H](O)[C@H](O)[C@H]2O)[C@H](O)[C@@H](O)[C@@H]1O [monooctanoyl trehalose] | 45 ± 4 µM
